Structures can show the parent of a compound that is named as a salt.
Columns and labels:
[1] = molecular target: T1, PI3Kβ (Homo sapiens, UniProt P42338); test: Inhibition of PI3K isoforms: PI3Kβ (microfluidic electrophoresis kinase assay, PIP2/PS substrate); format: biochemical; settings: p110β/p85α, ATP 60 μM; read-out: PI3Kb IC50
T1 construct: Full-length N-terminal; GST (N); host or cells: SF9 cells (baculovirus)
Experimental: (§1) The kinase substrate was prepared by mixing and sonicating fluorescently-labeled phosphatidylinositol 4,5-phosphate (PIP2) with phospho-L-serine (PS) at 1:20 ratio in 50 mM HEPES buffer pH7.5.
(§2) The kinase reactions were assembled in 384-well plates (Greiner) in a total volume of […] as follows. The kinase proteins were pre-diluted in an assay buffer comprising 50 mM HEPES, pH 7.5, 0.012% CHAPS, 1 mM DTT, 10 mM Na3VaO4, 10 mM 3-GP, 3 mM MgCl2, and 40 mM NaCl2, and dispensed into a 384-well plate (10 μL per well). Test compounds were serially pre-diluted in DMSO and added to the protein samples by acoustic dispensing (Labcyte Echo). The concentration of DMSO was equalized to 1% in all samples. All test compounds were tested at 12 concentrations. […] Terminated plates were analyzed on a microfluidic electrophoresis instrument (Caliper LabChip® 3000, Caliper Life Sciences/Perkin Elmer). The change in the relative fluorescence intensity of the PI(4,5)P substrate and PI(3,4,5)P product peaks was measured. The activity in each test sample was determined as the product to sum ratio (PSR): P/(S+P), where P is the peak height of the product, and S is the peak height of the substrate. Percent inhibition (Pinh) was determined using the following equation: […]

[2] = molecular target: T2, PI3Kγ (Homo sapiens, UniProt P48736); test: Inhibition of PI3K isoforms: PI3Kγ (microfluidic electrophoresis kinase assay, PIP2/PS substrate); format: biochemical; settings: p120γ, ATP 100 μM; read-out: PI3Kg IC50
T2 construct: Full length N-terminal; His (N); host or cells: SF9 cells (baculovirus)
Experimental: as §1, §2

[3] = system: ALS patient (SOD1 A4V) iPSC derived motor neurons; test: iPSC MN Survival assay (GFP imaging, six days, hazard ratio from Cox regression); format: cell-based; settings: Homo sapiens, survival rescue, read-out: C9 iPSC MN Significant survival rescue EC50

T2 sequence (P48736 whole entry, canonical isoform): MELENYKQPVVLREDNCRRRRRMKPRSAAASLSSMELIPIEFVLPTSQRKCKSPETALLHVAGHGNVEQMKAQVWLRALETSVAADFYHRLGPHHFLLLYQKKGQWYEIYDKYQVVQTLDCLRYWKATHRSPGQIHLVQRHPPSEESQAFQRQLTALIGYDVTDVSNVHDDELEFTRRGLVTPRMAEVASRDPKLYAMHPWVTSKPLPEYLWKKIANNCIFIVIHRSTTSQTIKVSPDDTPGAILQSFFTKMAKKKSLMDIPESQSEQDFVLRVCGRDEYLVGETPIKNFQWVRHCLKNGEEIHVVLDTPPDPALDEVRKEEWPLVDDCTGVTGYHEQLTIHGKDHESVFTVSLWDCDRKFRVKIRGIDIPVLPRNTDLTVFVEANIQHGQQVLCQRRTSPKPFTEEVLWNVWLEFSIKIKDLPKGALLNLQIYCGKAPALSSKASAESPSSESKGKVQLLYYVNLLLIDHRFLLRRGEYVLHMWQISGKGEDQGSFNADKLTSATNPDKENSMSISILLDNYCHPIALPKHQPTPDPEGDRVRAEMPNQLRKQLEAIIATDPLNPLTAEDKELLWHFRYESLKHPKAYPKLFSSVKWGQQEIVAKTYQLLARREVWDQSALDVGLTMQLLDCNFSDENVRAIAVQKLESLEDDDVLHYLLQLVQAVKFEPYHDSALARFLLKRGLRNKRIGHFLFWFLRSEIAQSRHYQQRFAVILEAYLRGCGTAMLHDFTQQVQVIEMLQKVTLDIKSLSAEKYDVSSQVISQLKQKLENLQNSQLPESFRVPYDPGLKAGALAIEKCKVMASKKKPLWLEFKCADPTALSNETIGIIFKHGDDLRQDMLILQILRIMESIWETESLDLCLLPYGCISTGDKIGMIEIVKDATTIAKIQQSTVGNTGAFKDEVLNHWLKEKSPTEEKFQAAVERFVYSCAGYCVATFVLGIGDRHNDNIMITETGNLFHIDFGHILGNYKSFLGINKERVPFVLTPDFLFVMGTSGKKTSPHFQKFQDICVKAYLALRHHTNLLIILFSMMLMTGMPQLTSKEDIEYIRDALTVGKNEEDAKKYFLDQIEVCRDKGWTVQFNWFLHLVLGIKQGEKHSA
T1 sequence (P42338 whole entry, canonical isoform): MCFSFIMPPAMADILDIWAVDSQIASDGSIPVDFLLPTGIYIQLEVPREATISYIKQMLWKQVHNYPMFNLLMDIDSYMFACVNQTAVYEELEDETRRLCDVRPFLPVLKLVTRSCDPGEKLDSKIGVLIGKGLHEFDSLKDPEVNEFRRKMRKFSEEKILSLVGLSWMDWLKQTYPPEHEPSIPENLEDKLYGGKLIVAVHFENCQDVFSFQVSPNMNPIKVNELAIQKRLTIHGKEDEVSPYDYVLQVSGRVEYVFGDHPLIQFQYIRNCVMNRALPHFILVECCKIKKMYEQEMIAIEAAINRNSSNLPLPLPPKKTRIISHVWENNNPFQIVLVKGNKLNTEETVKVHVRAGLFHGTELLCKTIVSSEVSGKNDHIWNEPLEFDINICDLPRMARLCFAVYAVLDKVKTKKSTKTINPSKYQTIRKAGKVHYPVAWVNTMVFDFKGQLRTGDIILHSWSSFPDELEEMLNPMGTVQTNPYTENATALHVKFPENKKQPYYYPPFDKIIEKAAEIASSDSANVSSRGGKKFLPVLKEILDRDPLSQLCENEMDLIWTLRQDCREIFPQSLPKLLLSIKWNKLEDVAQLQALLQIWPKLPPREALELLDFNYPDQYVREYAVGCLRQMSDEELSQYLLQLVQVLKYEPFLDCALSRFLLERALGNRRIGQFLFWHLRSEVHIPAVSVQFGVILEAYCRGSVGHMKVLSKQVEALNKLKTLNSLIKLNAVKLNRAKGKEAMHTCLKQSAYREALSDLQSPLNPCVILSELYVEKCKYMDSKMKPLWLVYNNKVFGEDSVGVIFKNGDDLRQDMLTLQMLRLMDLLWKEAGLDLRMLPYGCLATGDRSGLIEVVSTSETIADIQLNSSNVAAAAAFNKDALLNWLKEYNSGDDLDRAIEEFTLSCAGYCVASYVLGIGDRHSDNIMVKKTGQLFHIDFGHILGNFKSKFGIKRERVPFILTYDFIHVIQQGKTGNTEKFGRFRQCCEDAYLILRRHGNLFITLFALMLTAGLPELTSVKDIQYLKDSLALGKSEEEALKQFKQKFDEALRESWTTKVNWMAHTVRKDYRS
T1 sequence (P27986 whole entry partner, canonical isoform): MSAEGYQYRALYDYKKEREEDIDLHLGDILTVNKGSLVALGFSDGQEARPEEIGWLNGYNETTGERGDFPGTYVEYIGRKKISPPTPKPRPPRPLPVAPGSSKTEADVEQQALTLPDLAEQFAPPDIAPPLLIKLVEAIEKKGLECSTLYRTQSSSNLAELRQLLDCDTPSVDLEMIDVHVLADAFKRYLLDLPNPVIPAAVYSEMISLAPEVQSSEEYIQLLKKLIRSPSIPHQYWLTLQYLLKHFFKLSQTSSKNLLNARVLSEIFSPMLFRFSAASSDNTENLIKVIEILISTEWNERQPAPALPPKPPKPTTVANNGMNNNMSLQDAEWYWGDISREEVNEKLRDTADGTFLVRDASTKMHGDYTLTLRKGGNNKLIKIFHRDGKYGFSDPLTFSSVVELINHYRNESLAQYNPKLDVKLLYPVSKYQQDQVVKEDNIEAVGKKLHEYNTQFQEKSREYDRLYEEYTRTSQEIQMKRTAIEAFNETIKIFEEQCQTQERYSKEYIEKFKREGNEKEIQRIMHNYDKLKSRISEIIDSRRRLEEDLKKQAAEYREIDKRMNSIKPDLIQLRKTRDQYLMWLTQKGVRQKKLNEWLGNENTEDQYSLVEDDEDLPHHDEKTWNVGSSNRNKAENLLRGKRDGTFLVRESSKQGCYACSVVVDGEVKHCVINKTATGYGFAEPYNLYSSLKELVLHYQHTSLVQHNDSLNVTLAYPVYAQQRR

IC50 [1]: > 10 µM | IC50 [2]: > 10 µM
SMILES: c1ccc(-c2cc(Nc3nc(N4CCOCC4)c4oc(-c5ccncc5)cc4n3)[nH]n2)cc1 [Compound 1, 4-morpholino-N-(3-phenyl-1H-pyrazol-5-yl)-6-(pyridin-4-yl)furo[3,2-d]pyrimidin-2-amine hydrochloride]
EC50 [3]: 1000 nM
